Consider 14 compounds from PMC5185470 (Bioorganic & medicinal chemistry letters, 2016).

The target in one data set is BuChE (Homo sapiens, UniProt P06276). The data set can be described thus: biochemical.
The next data set concerns the target AChE (Homo sapiens, UniProt P22303). Description: biochemical. The data set is classed as biochemical. Particulars: for increase of AChE inhibition relative to the unsubstituted nitropyridazine: vs JWS.
The next data set has as its target T1, M2 receptor (Homo sapiens, UniProt P08172).
T1 sequence (P08172 1-466): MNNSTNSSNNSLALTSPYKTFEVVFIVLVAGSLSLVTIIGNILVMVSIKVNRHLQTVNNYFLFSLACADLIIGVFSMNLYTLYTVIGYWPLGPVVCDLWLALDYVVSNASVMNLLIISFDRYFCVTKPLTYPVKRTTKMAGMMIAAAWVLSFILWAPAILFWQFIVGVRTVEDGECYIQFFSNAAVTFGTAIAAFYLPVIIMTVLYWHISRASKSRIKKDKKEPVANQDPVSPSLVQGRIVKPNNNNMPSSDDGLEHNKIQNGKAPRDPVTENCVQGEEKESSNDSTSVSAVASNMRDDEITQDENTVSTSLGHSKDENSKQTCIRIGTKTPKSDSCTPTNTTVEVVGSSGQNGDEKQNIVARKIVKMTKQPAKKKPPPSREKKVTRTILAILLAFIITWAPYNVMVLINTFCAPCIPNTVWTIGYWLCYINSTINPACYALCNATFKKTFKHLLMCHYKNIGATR
The note with it: read-out: M2 receptors IC50; previous studies; cited from earlier work.

A short description of data set [1]: Chemical decomposition on storage. Type of data set: physicochemical. The note with it: estimated, after 6 months; nitro replaced by hydroxyl.

As usually defined, the pIC50 is the negative decadic logarithm of the IC50, by convention in mol/L.

pIC50: −log10 of the molar value.

Sequence of AChE (P22303 32-614): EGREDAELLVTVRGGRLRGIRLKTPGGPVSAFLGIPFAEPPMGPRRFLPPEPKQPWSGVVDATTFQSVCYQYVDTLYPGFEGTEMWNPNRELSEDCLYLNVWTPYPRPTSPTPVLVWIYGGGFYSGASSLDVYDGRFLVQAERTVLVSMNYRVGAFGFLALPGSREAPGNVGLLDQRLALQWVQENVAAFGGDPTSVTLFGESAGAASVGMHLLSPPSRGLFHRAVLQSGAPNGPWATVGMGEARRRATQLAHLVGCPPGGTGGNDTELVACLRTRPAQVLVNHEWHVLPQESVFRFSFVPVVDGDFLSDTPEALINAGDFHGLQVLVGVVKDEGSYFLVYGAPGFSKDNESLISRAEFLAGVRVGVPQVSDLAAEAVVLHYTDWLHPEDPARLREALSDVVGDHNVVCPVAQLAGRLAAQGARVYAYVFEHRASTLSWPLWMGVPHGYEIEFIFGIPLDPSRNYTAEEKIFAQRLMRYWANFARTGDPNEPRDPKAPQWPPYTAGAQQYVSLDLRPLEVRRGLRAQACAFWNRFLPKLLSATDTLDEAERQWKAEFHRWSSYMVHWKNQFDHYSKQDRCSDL
Sequence of BuChE (P06276 29-602): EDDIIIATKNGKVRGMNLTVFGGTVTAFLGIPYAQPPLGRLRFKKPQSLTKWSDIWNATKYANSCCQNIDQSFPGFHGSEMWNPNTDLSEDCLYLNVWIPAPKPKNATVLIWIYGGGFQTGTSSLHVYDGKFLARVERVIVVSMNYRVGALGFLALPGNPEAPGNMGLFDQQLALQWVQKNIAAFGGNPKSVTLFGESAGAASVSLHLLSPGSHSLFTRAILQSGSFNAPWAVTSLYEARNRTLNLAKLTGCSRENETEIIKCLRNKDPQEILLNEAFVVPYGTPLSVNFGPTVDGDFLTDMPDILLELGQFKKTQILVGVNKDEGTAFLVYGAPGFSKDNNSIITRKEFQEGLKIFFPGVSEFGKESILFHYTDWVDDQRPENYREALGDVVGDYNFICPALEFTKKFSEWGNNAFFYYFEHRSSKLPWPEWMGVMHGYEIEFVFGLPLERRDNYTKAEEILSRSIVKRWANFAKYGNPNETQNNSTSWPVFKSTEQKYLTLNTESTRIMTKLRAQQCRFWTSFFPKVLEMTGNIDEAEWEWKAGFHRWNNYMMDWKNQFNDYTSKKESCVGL

As for `CN(C)Cc1ccc(CSCCN2C(=O)CCC2=O)o1` [Compound 27], the pIC50 on BuChE was less than 4.30.
As to `CN(C)Cc1ccc(CSCCNc2nc(N)n[nH]2)o1` [Compound 18], the negative-log IC50 (pIC50) at BuChE and against AChE was less than 4.30 in each case.
Regarding `CN(C)Cc1ccc(CSCCN2C(=O)c3cccc4cc([N+](=O)[O-])cc(c34)C2=O)o1` [Compound 33], the “fold less active than donepezil (AChE)” value at AChE (vs donepezil IC50 = 0.050 µM) is 3 fold.
The compound `CN(C)Cc1ccc(CSCCNc2ccc(Cl)nn2)o1` [Compound 16] had a negative-log IC50 (pIC50) on BuChE of less than 4.30.
Turning to `CN(C)Cc1ccc(CSCCNc2nc(N)no2)o1` [Compound 17], the pIC50 against BuChE and against AChE was less than 4.30 throughout.
In the case of `Cc1cccc(Nc2ccccc2C(=O)NCCSCc2ccc(CN(C)C)o2)c1C` [Compound 25], the pIC50 at BuChE and on AChE was less than 4.30 throughout.
With `CN(C)Cc1ccc(CSCCNc2nnc(-c3ccccc3)c(-c3ccccc3)c2[N+](=O)[O-])o1` [Compound 12], the “increase of AChE inhibition relative to the unsubstituted nitropyridazine” value on AChE is given as roughly 3 fold.
Turning to `CN(C)Cc1ccc(CSCCNC(=O)c2ccccc2-c2ccccc2C(=O)O)o1` [Compound 24], the pIC50 at BuChE and against AChE was less than 4.30 throughout.
Take `CN(C)Cc1ccc(CSCCN2C(=O)c3ccc([N+](=O)[O-])cc3C2=O)o1` [Compound 31]: at BuChE, the pIC50 is less than 4.30.
Take `CC1CC(=O)N(CCSCc2ccc(CN(C)C)o2)C1=O` (centres unmarked) [Compound 28]: the pIC50 against BuChE was less than 4.30.
Turning to `CN(C)Cc1ccc(CSCCNc2nnccc2[N+](=O)[O-])o1` [JWS, N-(2-(((5-((dimethylamino)methyl)furan-2-yl)methyl)thio)ethyl)-4-nitropyridazin-3-amine], the negative logarithm of the IC50 (pIC50) at M2 receptor is 7.22. In data set [1], the chemical decomposition entry was “about 10%”.
Compound `Cc1ccc(S(=O)(=O)NCCSCc2ccc(CN(C)C)o2)cc1` [Compound 23] gave a pIC50 at AChE of less than 4.30.
Take `Cc1c(-c2ccccc2)nnc(NCCSCc2ccc(CN(C)C)o2)c1[N+](=O)[O-]` [Compound 10]: the “increase of AChE inhibition relative to the unsubstituted nitropyridazine” value at AChE is on record as roughly 3 fold.
With `CS/C(=N\S(=O)(=O)c1ccc(C)cc1)NCCSCc1ccc(CN(C)C)o1` [Compound 22], the negative-log IC50 (pIC50) against BuChE and against AChE was less than 4.30 throughout.
